{"source": "patent EP2138174A1", "about": "“PHARMACEUTICAL COMPOSITION IN THE FORM OF A SUBLINGUAL TABLET CONSISTING OF A NON-STEROIDAL ANTI-INFLAMMATORY AGENT AND AN OPIATE ANALGESIC FOR PAIN MANAGEMENT” (priority 2007, dated 2008)", "key": {"[1]": {"tested_on": "rat arthritic pain model", "test": "PIFIR model: antinociceptive activity after intraarticular uric acid (rat arthritic pain model)", "type": "in vivo, Wistar [CRl (WI) BR] female rats", "set-up": "antinociceptive efficiency (ABC): dose or concentration left out as unconfirmed", "description": "A rat arthritic pain model was determined for said purpose. Data were interpreted by using a Surface Synergic Interaction Analysis (ISS) and an Isobolographic Analysis to determine the interaction nature. ISS is calculated from the total antinociceptive effect produced by a combination after a substraction of an antinociceptive effect produced separately by the drug.\nFor this trial, Wistar [CRl (WI) BR] female rats weighing 180-200 g. were weighed. Feed was maintained 12 hours before the water ad libitum access experiments. All the experimental procedures followed the recommendations of the Committee for Research and Ethical Issues of the International Association for the Study of Pain (Covino et al., 1980) and Guidelines on Ethical Standards for Investigations of Experimental Pain in Animals (Zimmermann, 1983) and they were carried out according to a protocol approved by the local Animal Ethics Committee. Animal number in experiment was kept at a […] and animals were maintained in a weathered room and light control with a 12-hour light/darkness cycle.\nUric acid was suspended in mineral oil; Ketorolac trometamine, tramadol hydrochloride and indomethacin were dissolved in carboxymethyl cellulose and orally administered.\nAntinociceptive activity was determined by using a PIFIR model which has been described in detail (López-Muñoz et al., 1993). Animals were anesthetized with chamber ether (Pyrex-glass dryer saturated with ether vapor). Nociception was induced through an intraarticular injection (ia) of 0.5 mL uric acid suspended in mineral oil in the right-hind leg knee joint. Suspension was prepared by mixing 3.0 g of uric acid with 10 mL of mineral oil in a glass mortar with pestle (Pyrex). Intraarticular injection was carried out through the patellar ligament using a 1 mL glass syringe (Beckton Dickinson LTA, Brazil) with a 5 mm 24-needle. Immediately after, an electrode was implanted in the plantar surface of each hind claw between the plantar pads. Rats were allowed to recover from anesthesia and then a stainless steel cylinder was attached which was rotated at 4 rpm, forcing to the rats to walk for 2 minute periods every 30 minutes during 6.5 hours. It was not necessary a training period since rats learned it from the first minute. Contact time between each implanted electrode in rat limb and cylinder was registered. After the uric acid injection, rats progressively developed damaged limb dysfunction. […] This time was considered as zero time for antinoceptive effect measures; these effects are measured every 30 minutes during the following 4 hours. This allowed determining the course of the nociceptive effects in the same animal. Antinociception was considered as a recovery of contact time. Data are expressed as a performance percentage index (IF%; that is, contact time of injected leg divided by contact time of left leg, control, multiplied per 100). For the purpose of this trial, it was unavoidable to induce nociception in experimentation animals. However, care was taken in preventing an unnecessary suffering. All the experiments were performed between 7:00 A.M. and 2:00 P.M.\nAt the end of the study the rats were sacrificed.\nStudy data, tables and figures are expressed as IF%. IF% vs. time curves were prepared for each treatment and the corresponding time course was obtained. Antinociception was estimated as a recovery of IF%. Accumulated antinociceptive effect during all the observation period (4 hours) was determined as the area under the curve (ABC) for time course to obtain the dose-response curve and for analyzing the total antinociceptive effect obtained for the analgesic agent whether alone and in combination.\nABC was calculated for each drug combination and for each of the components. On the basis of addition of individual pharmacological effects (Seegers et al., 1981) an ABC equivalent to the sum was expected. […]"}, "[2]": {"tested_on": "stomach", "test": "Gastrointestinal side effect measurement (gastric ulcers and erosions, relative to indomethacin)", "type": "in vivo, Female rats from Wistar type", "details": "for Gastric lesion ((Index of ulcers in drug tests / Index of ulcers in indomethacin tests) x 100): relative to indomethacin 20 mg/kg = 100, same doses and schedule as ulcer column", "description": "Female rats from Wistar type (150-180 g body weight) were subject to fasting 24 hours before experimentation. […] 2.5 hours later, all the groups received a second administration of the same doses. Stomachs were examined at 5 hours after first treatment in the following way: animals were sacrificed and stomach was separated which was opened along its lower curvature, gently rinsing with formol (2%) and examined. Severity of induced gastric lesions with medicament was calculated as a ratio of number of lesions (stomach ulcer or erosion) caused by provided treatment and the number of lesions caused by indomethacin (100%). This was determined to reflect the side effects induced by medicament. The sum of the area of all the ulcers in the body of each animal was calculated and served as an ulcerative index. Gastric lesion percentage was calculated in the following way: % of gastric lesion = (IUM/IUI) × 100 [formula] wherein IUM is the Medicament Ulcerative Index on test (mm^2) and IUI is the Ulcerative Index for assayed Indomethacin (mm^2).\nABC was calculated for each drug combination and for each of the components. On the basis of addition of individual pharmacological effects (Seegers et al., 1981) an ABC equivalent to the sum was expected. If the sum of the corresponding individual ABC was higher than the theoretical sum, the result was determined as enhancement; when similar to the theoretical sum it was determined to show additive antinociceptive effects. ABC was obtained through the trapezoidal rule (Rowland and Trozer, 1989). All the values for each treatment were average ± S.E.M., for six animals. ABC values for drug combinations were compared with the values which were expected by using the Student test. […] A P<0.05 was determined as statistically significant."}, "[3]": {"details": "in vivo", "description": "Blood samples were taken up to 24 hours after medicament delivery.\nIn order to determine whether bioavailability is existent or not between both medicaments, a logarithmic transformation of data was carried out and they were analyzed by means of the statistical package WinNonlinTM.\nConfidence ranges proposed by FDA for semilogarithmic data in determining bioequivalency of two products are from 80 to 125%."}, "[4]": {"details": "ketorolac, cited from earlier work"}, "[5]": {"details": "cited from earlier work"}, "[6]": {"details": "p.o., two administrations 2.5 hours apart, stomach examined at 5 hours, indomethacin 20 mg/kg, ketorolac 1 mg/kg, tramadol 17.8 mg/kg, combination as in title, six rats"}}, "note": "“And” between values parts separate entries of the source, which are not always exact repeats. Equal entries are not always repeated. Structures can show the parent of a compound that is named as a salt. Where two headings read alike, the source gives them in different places.", "data": [{"smiles": "O=C(c1ccccc1)c1ccc2n1CCC2C(=O)O", "note": "(centres unmarked) [Ketorolac, Ketorolac trometamine]", "values": [{"measurement": "Emax", "setting": "[1]; IF% time course, ketorolac 0.32 mg/kg p.o. alone", "value": "33.7 ± 8.7", "unit": "%"}, {"measurement": "ED50", "setting": "[1]; Rattus norvegicus, po, dose causing 50% of maximum possible effect, linear regression of dose-response curve, ± S.E.M., read-out: DE50 (the source's name)", "value": "0.86 ± 0.1", "unit": "mg/kg"}, {"measurement": "ABC", "setting": "[1]; ketorolac 0.32 mg/kg p.o. alone, 4 hours", "value": "65.0 ± 9.6", "unit": "au"}, {"measurement": "ABC", "setting": "[1]; ketorolac 0.56 mg/kg p.o. alone, 4 hours", "value": "98.7 ± 15.5", "unit": "au"}, {"measurement": "ABC", "setting": "[1]; ketorolac 1.78 mg/kg p.o. alone, 4 hours", "value": "279.0 ± 15.5", "unit": "au"}, {"measurement": "antinociceptive effect (ABC)", "setting": "[1]; ketorolac 3.16 mg/kg p.o., maximum used dose", "value": "295.8 ± 14.9", "unit": "au"}, {"measurement": "effect on walking capacity of rats treated with vehicle", "setting": "[1]; ketorolac 0.18 -5.62 mg/kg, tramadol 3.16-56.23 mg/kg, no uric acid, data not shown", "value": "did not affect the walking capacity"}, {"measurement": "antinociceptive efficiency (ABC)", "setting": "[1]; ketorolac p.o., area under IF% vs time curve, 4 hours, mean ± S.E.M., six animals", "value": "295.8 ± 14.9", "unit": "au"}, {"measurement": "Ulcers (sum of the area of all ulcers)", "setting": "[2]; [6]", "value": "13.7 ± 2.7 mm^2 and 13.7 ± 2.7^c mm^2"}, {"measurement": "Gastric lesion ((Index of ulcers in drug tests / Index of ulcers in indomethacin tests) x 100)", "setting": "[2]", "value": 26.6, "unit": "%"}, {"measurement": "Ratio (%Ref), LnAUCINF", "setting": "[3]; human", "value": 95.53, "unit": "%Ref"}, {"measurement": "Ratio (%Ref), Ln (Cmax)", "setting": "[3]", "value": 72.78, "unit": "%Ref"}, {"measurement": "start of analgesic effect", "setting": "[4]; intramuscular administration", "value": 30, "unit": "min"}, {"measurement": "start of analgesic effect", "setting": "[4]; oral administration", "value": 10, "unit": "min"}, {"measurement": "dose removed by urine without any change", "setting": "[5]; ketorolac, remainder excreted in feces", "value": "about 91%"}]}, {"smiles": "COc1ccc2c(c1)c(CC(=O)O)c(C)n2C(=O)c1ccc(Cl)cc1", "note": "[Indomethacin]", "values": [{"measurement": "No. of erosions", "setting": "[2]; [6]", "value": "30.0 ± 3.9"}, {"measurement": "Ulcers (sum of the area of all ulcers)", "setting": "[2]; [6]", "value": "51.6 ± 3.4", "unit": "mm^2"}, {"measurement": "Gastric lesion ((Index of ulcers in drug tests / Index of ulcers in indomethacin tests) x 100)", "setting": "[2]", "value": 100, "unit": "%"}]}, {"smiles": "COc1cccc(C2(O)CCCCC2CN(C)C)c1", "note": "(centres unmarked) [Tramadol, Tramadol Hydrochloride]", "values": [{"measurement": "Antinociceptive effects (ABC)", "setting": "[1]; rat, in vivo", "value": "236.7 ± 11.0", "unit": "au"}, {"measurement": "Emax", "setting": "[1]; rat, in vivo", "value": "17.1 ± 9.1", "unit": "%"}, {"measurement": "antinociceptive activity (ABC)", "setting": "[1]; rat, in vivo", "value": "207.7 ± 24.7", "unit": "au"}, {"measurement": "effect on walking capacity of rats treated with vehicle", "setting": "[1]; rat, in vivo", "value": "did not affect the walking capacity"}, {"measurement": "side effects (sedation, elation, dizziness and effects on walking capacity)", "setting": "[1]; rat, in vivo", "value": "50 % of animals"}, {"measurement": "DE50", "setting": "[1]; rat, in vivo, po", "value": "44.29 ± 0.06", "unit": "mg/kg"}, {"measurement": "No. of erosions", "setting": "[2]; rat, in vivo", "value": 0}, {"measurement": "Ulcers (sum of the area of all ulcers)", "setting": "[2]; rat, in vivo", "value": 0, "unit": "mm^2"}, {"measurement": "ulcers or erosions (in words)", "setting": "[2]; rat, in vivo", "value": "did not cause ulcers or erosions"}, {"measurement": "bioavailability", "setting": "[5]; in vivo, po", "value": 79, "unit": "%"}, {"measurement": "time to maximum plasma concentrations", "setting": "[5]; in vivo, po", "value": "1.5 to 2", "unit": "h"}]}]}
